Where two headings read alike, the source gives them in different places.
Tests used:
DBH [1] = settings: cited from earlier work
DBH [2] = molecular target: T1, DBH (Bos taurus, UniProt P15101); test: in vitro DBH inhibition (conversion of tyramine to octopamine, spectrophotometric at 330 nm)
T1 sequence (P15101 1-610): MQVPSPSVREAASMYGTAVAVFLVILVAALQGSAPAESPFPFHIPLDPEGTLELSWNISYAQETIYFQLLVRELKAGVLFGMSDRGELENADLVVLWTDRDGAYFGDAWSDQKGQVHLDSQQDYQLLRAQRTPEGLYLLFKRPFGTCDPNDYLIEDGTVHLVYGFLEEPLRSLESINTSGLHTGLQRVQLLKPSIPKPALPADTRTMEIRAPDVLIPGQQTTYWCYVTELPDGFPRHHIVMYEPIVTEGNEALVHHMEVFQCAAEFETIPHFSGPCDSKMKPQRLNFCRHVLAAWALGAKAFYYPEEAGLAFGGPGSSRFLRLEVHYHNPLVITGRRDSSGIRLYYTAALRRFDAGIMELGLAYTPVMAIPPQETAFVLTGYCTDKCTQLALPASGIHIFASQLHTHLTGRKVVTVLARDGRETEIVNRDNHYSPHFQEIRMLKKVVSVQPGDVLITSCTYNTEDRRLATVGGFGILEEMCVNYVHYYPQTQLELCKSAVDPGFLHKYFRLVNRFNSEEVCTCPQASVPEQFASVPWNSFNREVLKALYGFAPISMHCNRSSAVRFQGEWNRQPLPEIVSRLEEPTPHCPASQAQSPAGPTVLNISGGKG

[3] = system: spontaneously hypertensive rats; test: mean arterial blood pressure in spontaneously hypertensive rats; format: in vivo; settings: 50 mg/kg intraperitoneally
Text: Maximal blood pressure reduction was approximately 50 to 55 mm Hg.

[4] = patients, Friedman et al., Psychosomatic Med. 40, 107 (1978), significance uncertain

SMILES	lowered DBH levels in treated patients (DBH [1]; [4])	IC50 (DBH [2]) [µM]	further results
C[C@](N)(Cc1ccc(O)c(O)c1)C(=O)O [alpha-methyl-DOPA]	lowered DBH levels	–	–
COC(=O)[C@H]1[C@H]2C[C@@H]3c4[nH]c5cc(OC)ccc5c4CCN3C[C@H]2C[C@@H](OC(=O)c2cc(OC)c(OC)c(OC)c2)[C@@H]1OC [reserpine]	lowered DBH levels	–	–
CC(C)NCC(O)COc1cccc2ccccc12 (stereo not shown) [propranolol]	–	–	lowered DBH levels in treated patients (DBH [1]; human, in vivo): not
Fc1cc(F)cc(Cc2cccnc2S)c1	–	134	blood pressure reduction compared to vehicle-treated controls ([3]; monitored for 260 minutes): significant blood pressure reductions; time after treatment to significant blood pressure reductions ([3]; within approximately): ≤ 30 min
Fc1cccc(Cc2cccnc2S)c1 [3-(3-Fluorobenzyl)-2-mercaptopyridine]	–	500	–

Source: patent US4839371A, “3-aralkyl-2-mercaptoyridines as dopamine-β-hydroxylase inhibitors” (SmithKline Beckman Corporation, priority 1987, dated 1989)
